Measured values from patent US6645960B1, “Antifungal sordaricin derivatives” (Glaxo Wellcome S.A., priority 1999, dated 2003).

Legend:
[1] = system: Candida albicans 4711; assay: standard in vitro screen, minimum inhibiting concentration (MIC) by two-fold serial dilution, in the presence or absence of mouse serum; format: cell-based; conditions: for MIC C.albicans4711: absence of mouse serum; for MIC 50%serum C.albicans4711: presence of 50% mouse serum
Experimental: The in vitro evaluation of the anti-fungal activity of compounds of the invention was performed on liquid or solid medium by the anti-fungal two-fold serial dilution technique of determining the minimum inhibitory concentration (MIC) of anti-fungal agent that inhibited development of growth after 24 to 48 hours of incubation at 37° C. For example a series of agar plates or broth microdilution panels containing two-fold dilutions of anti-fungal agent were inoculated with a standard culture of a clinically relevant pathogen, in the presence and absence of activated or inactivated serum. The agar plates or broth microdilution panels were then examined for the presence or absence of growth of the fungus and the appropriate MIC values determined. […] Compounds of formula (I) have been tested for antifungal activity in a standard in vitro screen and the minimum inhibiting concentration (MIC;μg/ml) determined for each compound against a relevant strain of Candida albicans in the presence or absence of mouse serum.

[2] = system: battery of fungal organisms; conditions: tested against a battery of fungal organisms; cited from earlier work

Compound	MIC 50%serum C.albicans4711 [1] [µg/mL]	MIC C.albicans4711 ([1]; hydrochloride) [µg/mL]	MIC 50%serum C.albicans4711 ([1]; hydrochloride) [µg/mL]	antifungal activity [2]	further results
[[1R-(1α,3aβ,4β,4aβ,7β,7aα,8aβ)]8a-[(2R,6R)-(4-allyl-6-methyl-morpholin-2-yl)-oxymethyl]-4-formyl-4,4a,5,6,7,7a,8,8a-octahydro-7-methyl-3-(1-methylethyl)-1,4-methano-s-indacene-3a(1H)-carboxylic acid, pivaloyloxymethyl ester hydrochloride [Example 5]	0.05	–	–	–	MIC C.albicans4711 [1]: >125 µg/mL
C=CCN1C[C@H](OC[C@@]23C[C@@H]4[C@H](C)CC[C@H]4[C@@]4(C=O)C[C@@H]2C=C(C(C)C)[C@@]34C(=O)OC(C)OC(=O)OCC)O[C@H](C)C1.Cl (single isomer, unassigned) [Example 3]	–	62	0.06	–	–
CO[C@H]1[C@@H](O)[C@H](O)[C@H](OC[C@@]23C[C@@H]4[C@H](C)CC[C@H]4[C@@]4(C=O)CC2C=C(C(C)C)[C@@]34C(=O)O)O[C@@H]1C [sordarin]	–	–	–	only moderately active	–
C=CCN1C[C@H](OC[C@@]23C[C@@H]4[C@H](C)CC[C@H]4[C@@]4(C=O)C[C@@H]2C=C(C(C)C)[C@@]34C(=O)OC(C)OC(=O)OCC)O[C@H](C)C1.Cl (single isomer, unassigned) [Example 2]	–	8	0.12	–	–
[[1R-(1α,3aβ,4β,4aβ,7β,7aα,8aβ)]8a-[(2R,6R)-(4-allyl-6-methyl-morpholin-2-yl)-oxymethyl]-4-formyl-4,4a,5,6,7,7a,8,8a-octahydro-7-methyl-3-(1-methylethyl)-1,4-methano-s-indacene-3a(1H)-carboxylic acid, phthalidyl ester hydrochloride [Example 4]	0.25	–	–	–	–
C/C=C/C=C\C(=O)O[C@H]1[C@H](O)[C@H](OCC23C[C@@H]4[C@H](C)CC[C@H]4C4(C=O)CC2C=C(C(C)C)C34C(=O)O)O[C@H](C)[C@H]1OC (stereo partly drawn) [zofimarin]	–	–	–	only moderately active	–
